The test system of series [1] is hNK1R-407 mice. The series is described as follows: Capsaicin-evoked mechanical allodynia. To be noted: 5 µL intrathecal; for duration of inhibition of capsaicin-evoked mechanical allodynia: 100 nM; for effect of higher dose on magnitude or duration of antinociception: 300 nM. The class given is in vivo, mouse.
Series [2] deals with spinal neurons in NK1R-407 mice. Details: species or system mouse. To be noted: spinal cord slices.
Series [3] has as its system hNK1R-407, hNK1R-311, and wild-type mice. Briefly: SP-evoked mechanical allodynia. The format is in vivo, mouse. To be noted: AP 100 nM/5 µL coadministered with SP 1 µg/5 µL intrathecal; hNK1R-407, hNK1R-311, wild-type mice.
In series [4] the target is T1, Nluc-NK1R (human NK1R) (Homo sapiens, UniProt P25103). The series is described as follows: biochemical. The class given is binding.
T1 sequence (P25103 whole entry): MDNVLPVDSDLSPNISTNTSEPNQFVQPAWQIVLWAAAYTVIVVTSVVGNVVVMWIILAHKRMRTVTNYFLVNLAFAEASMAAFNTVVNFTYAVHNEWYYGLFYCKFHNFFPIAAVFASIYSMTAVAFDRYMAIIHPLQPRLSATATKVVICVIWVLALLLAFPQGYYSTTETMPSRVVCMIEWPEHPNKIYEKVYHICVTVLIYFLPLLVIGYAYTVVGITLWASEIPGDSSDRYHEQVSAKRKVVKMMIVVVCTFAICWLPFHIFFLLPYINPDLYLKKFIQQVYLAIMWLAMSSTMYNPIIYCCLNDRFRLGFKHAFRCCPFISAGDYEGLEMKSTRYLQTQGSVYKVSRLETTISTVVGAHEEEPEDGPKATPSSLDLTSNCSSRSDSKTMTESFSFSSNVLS
Series [5] addresses T2, NK1R (Homo sapiens, UniProt P25103). The series is described as follows: ebBRET of SP-evoked mGαsq recruitment to early endosomes. The settings on record: antagonist 10 µM added after 5 min SP; one phase decay. The class given is cell-based.
In series [6] the target is T2, NK1R. Briefly: cell-based.
Series [7] in a line: pKa measurement by potentiometric titration. To be noted: 67% methanol aqueous solution. The format is physicochemical.
Series [8] concerns the target human NK1R-NP (Homo sapiens, UniProt P25103). Briefly: NanoBiT-BRET. The class given is cell-based. To be noted: NT 30 min, n = 5.
Series [9] concerns the target T2, NK1R. The series is described as follows: Nuclear ERK activity, Nuc-EKAR FRET biosensor, HEK293T cells with human NK1R. The class given is cell-based.
Series [10] is described as follows: logD experiments, distribution between octanol and aqueous buffer. To be noted: octanol/phosphate buffer, pH 7. The class given is physicochemical.
Series [11] has as its target T1, Nluc-NK1R (human NK1R). Briefly: NanoBRET saturation binding of TAMRA-NT analogs, membranes from HEK293T cells. To be noted: read-out: Kd for Nluc-NK1R; pH 7.4, saturation binding.

Experimental findings from PMC10235985 (Proceedings of the National Academy of Sciences of the …, 2023) are described below.

Broadly, the Ki is the equilibrium dissociation constant of an inhibitor or competing ligand from its target. A high value points to weaker binding. Broadly, the IC50 is the midpoint of a concentration-inhibition curve. High values mean weaker potency in that assay, low ones greater potency in that assay. As a reminder, the pKa is the negative logarithm of the acid dissociation constant. Low readings indicate a stronger acid or weaker base, high ones a weaker acid or stronger base. Usually logD stands for the decadic logarithm of the distribution of all forms, ionised or not, between an organic phase and buffer at a given pH. Lower therefore signals a more hydrophilic compound. A word on the Kd: it is the constant that tells how readily two partners part at equilibrium.

T2 sequence (P25103 whole entry): as above
Sequence of human NK1R-NP (P25103 whole entry): as above

`C[C@@H](O[C@H]1OCCN(Cc2n[nH]c(=O)[nH]2)[C@H]1c1ccc(F)cc1)c1cc(C(F)(F)F)cc(C(F)(F)F)c1` [AP, aprepitant]: in [1], the “duration of inhibition of capsaicin-evoked mechanical allodynia” value turned out to be 2 h and the “effect of higher dose on magnitude or duration of antinociception” value is given as “did not further increase the magnitude or duration of the antinociception”. The “effect on SP-induced excitation of spinal neurons” value in [2] was “prevented SP-induced excitation”. Also, in series [3], the “effect on SP-evoked mechanical allodynia” value is listed as “abolished”.

In the case of `Cc1ccccc1-c1cc(N2CCN(C)CC2)ncc1N(C)C(=O)C(C)(C)c1cc(C(F)(F)F)cc(C(F)(F)F)c1` [NT, netupitant], the inhibition constant Ki in [4] (Binding affinity BRET (Nluc-NK1R) pKi at pH 6.0) is 0.851 nM; in series [4] (Ki (pH 7.4), pH 7.4, tracer PS69), 0.91 nM. Also, in series [5], the “Kinetics of inhibition Endosomal miniGαsq (ebBRET) k for 10 µM” value is 0.14 ± 0.02 (9) min^−1. Also, the concentration for half-maximal inhibition (IC50) in series [6] was 178 nM; in series [8] (pIC50, inhibition of mGαsq recruitment to NK1R-NP at the plasma membrane (CAAX), CAAX, plasma membrane), 6.46 nM; in series [8] (pIC50, inhibition of mGαsq recruitment to NK1R-NP in early endosomes (FYVE), FYVE, early endosomes) it was 20 nM; in [9], 257 nM. This molecule also returned a pKa in series [7] of 6.81. Further, the “duration of inhibition of capsaicin-evoked mechanical allodynia” value in series [1] came to 4 h. Moreover, in series [1], the “effect of higher dose on magnitude or duration of antinociception” value is “did not further increase the magnitude or duration of the antinociception”. In [10], this molecule returned a logD of 4.97.

On to “PS68: fluorescent tetramethylrhodamine (TAMRA) derivative of NT, also referred to as TAMRA-NT”, for which the Kd in series [11] was 1.9 ± 0.39 nM.

On to “PS69: fluorescent TAMRA derivative of NT used as tracer in competition binding”, for which the Kd in series [11] was found to be 0.81 ± 0.065 nM.
